Data published in patent US9079866B2, “Flap modulators” (JANSSEN PHARMACEUTICA NV, priority 2013, dated 2015).

Legend:
human FLAP = human FLAP (Homo sapiens (Human), UniProt P20292); experiment: FLAP binding assay (HTRF format); conditions: human FLAP wild type, HTRF format; average of two plates, duplicates
How it was run: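 Binding of compounds to FLAP read out as HTRF ratio. Values are the mean of two assay plates, each sample run in duplicate per plate.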

[1] = test system: leukotriene pathway in human whole blood (LTB4 levels); experiment: Human whole blood assay (A23187-stimulated LTB4); assay type: cell-based; conditions: Homo sapiens, human whole blood diluted 1:1 in RPMI, A23187-stimulated LTB4; read-out: LTB4 IC50 1:1
How it was run: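 Compounds are pre-incubated 15 min at 37° Celsius in RPMI-diluted (1:1) heparinised whole blood before a 30 min A23187 stimulus (7 μg/mL). Plasma LTB4 is read by immunoassay kit, with IC50 calculated from a 4-parameter equation.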

human FLAP, sequence (P20292 whole entry): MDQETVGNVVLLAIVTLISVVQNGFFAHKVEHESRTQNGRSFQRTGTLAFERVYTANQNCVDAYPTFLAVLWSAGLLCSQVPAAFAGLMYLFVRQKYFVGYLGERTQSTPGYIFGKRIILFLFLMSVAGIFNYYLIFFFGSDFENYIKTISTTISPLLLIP

Ki (human FLAP) [nM] | IC50 [1] [nM] | SMILES
2 | 20 | Nc1cnc(-c2ccc(-c3ccccc3S(=O)(=O)N[C@@H]3CCCC[C@H]3O)cc2F)cn1 [Example 85, 4′-(5-Aminopyrazin-2-yl)-3′-fluoro-N-[(1R,2R)-2-hydroxycyclohexyl]biphenyl-2-sulfonamide]
3 | 27 | CC[C@H](CO)NS(=O)(=O)c1ccccc1-c1ccc(-c2cnc(N)cn2)c(F)c1 [Example 86, 4′-(5-Aminopyrazin-2-yl)-3′-fluoro-N-[(1R)-1-(hydroxymethyl)propyl]biphenyl-2-sulfonamide]
3 | 75 | Nc1cnc(-c2ccc(-c3ccccc3S(=O)(=O)N[C@@H]3CCCC[C@@H]3O)cc2F)cn1 [Example 87, 4′-(5-Aminopyrazin-2-yl)-3′-fluoro-N-[(1R,2S)-2-hydroxycyclohexyl]biphenyl-2-sulfonamide]
7 | 36 | Nc1cnc(-c2ccc(-c3ccccc3S(=O)(=O)NCCO)cc2F)cn1 [Example 88, 4′-(5-Aminopyrazin-2-yl)-3′-fluoro-N-(2-hydroxyethyl)biphenyl-2-sulfonamide]
6 | 43 | Nc1cnc(-c2ccc(-c3ccccc3S(=O)(=O)NC3CC3)cc2F)cn1 [Example 89, 4′-(5-Aminopyrazin-2-yl)-N-cyclopropyl-3′-fluorobiphenyl-2-sulfonamide]
1 | 12 | Nc1cnc(-c2ccc(-c3ccccc3S(=O)(=O)NCC3CC3)cc2F)cn1 [Example 90, 4′-(5-Aminopyrazin-2-yl)-N-(cyclopropylmethyl)-3′-fluorobiphenyl-2-sulfonamide]
5 | 28 | Nc1cnc(-c2ccc(-c3ccccc3S(=O)(=O)N3CCC[C@@H]3CO)cc2F)cn1 [Example 91, (R)-(1-((4′-(5-Aminopyrazin-2-yl)-3′-fluoro-[1,1′-biphenyl]-2-yl)sulfonyl)pyrrolidin-2-yl)methanol]
10 | 53 | Nc1cnc(-c2ccc(-c3ccccc3S(=O)(=O)N3CCC[C@H]3CO)cc2F)cn1 [Example 95, (S)-(1-((4′-(5-Aminopyrazin-2-yl)-3′-fluoro-[1,1′-biphenyl]-2-yl)sulfonyl)pyrrolidin-2-yl)methanol]
8 | 42 | C[C@@H](O)CNS(=O)(=O)c1ccccc1-c1ccc(-c2cnc(N)cn2)c(F)c1 [Example 97, (R)-4′-(5-aminopyrazin-2-yl)-3′-fluoro-N-(2-hydroxypropyl)-[1,1′-biphenyl]-2-sulfonamide]
8 | 39 | C[C@H](O)CNS(=O)(=O)c1ccccc1-c1ccc(-c2cnc(N)cn2)c(F)c1 [Example 98, (S)-4′-(5-aminopyrazin-2-yl)-3′-fluoro-N-(2-hydroxypropyl)-[1,1′-biphenyl]-2-sulfonamide]
2 | 30 | Nc1cnc(-c2ccc(-c3ccccc3S(=O)(=O)NCC3(O)CCCCC3)cc2F)cn1 [Example 99, 4′-(5-Aminopyrazin-2-yl)-3′-fluoro-N-[(1-hydroxycyclohexyl)methyl]biphenyl-2-sulfonamide]
1 | 24 | CC(C)(CO)NS(=O)(=O)c1ccccc1-c1ccc(-c2cnc(N)cn2)c(F)c1 [Example 100, 4′-(5-Aminopyrazin-2-yl)-3′-fluoro-N-(2-hydroxy-1,1-dimethylethyl)biphenyl-2-sulfonamide]
2 | 14 | CC(C)(O)CNS(=O)(=O)c1ccccc1-c1ccc(-c2cnc(N)cn2)c(F)c1 [Example 101, 4′-(5-Aminopyrazin-2-yl)-3′-fluoro-N-(2-hydroxy-2-methylpropyl)biphenyl-2-sulfonamide]
12 | > 1000 | Nc1cnc(-c2ccc(-c3ccccc3S(=O)(=O)NC[C@H](O)CO)cc2F)cn1 [Example 104, (S)-4′-(5-Aminopyrazin-2-yl)-N-(2,3-dihydroxypropyl)-3′-fluoro-[1,1′-biphenyl]-2-sulfonamide]
25 | 481 | Nc1cnc(-c2ccc(-c3ccccc3S(=O)(=O)NC[C@@H](O)CO)cc2F)cn1 [Example 105, (R)-4′-(5-Aminopyrazin-2-yl)-N-(2,3-dihydroxypropyl)-3′-fluoro-[1,1′-biphenyl]-2-sulfonamide]
16 | 132 | Nc1cnc(-c2ccc(-c3ccccc3S(=O)(=O)N[C@H]3CCNC3=O)cc2F)cn1 [Example 107, (S)-4′-(5-Aminopyrazin-2-yl)-3′-fluoro-N-(2-oxopyrrolidin-3-yl)-[1,1′-biphenyl]-2-sulfonamide]
10 | 49 | Nc1cnc(-c2ccc(-c3ccccc3S(=O)(=O)N[C@H]3CCCNC3=O)cc2F)cn1 [Example 108, (S)-4′-(5-Aminopyrazin-2-yl)-3′-fluoro-N-(2-oxopiperidin-3-yl)-[1,1′-biphenyl]-2-sulfonamide]
1 | 18 | CC(C)[C@H](CO)NS(=O)(=O)c1ccccc1-c1ccc(-c2cnc(N)cn2)c(F)c1 [Example 109, (R)-4′-(5-Aminopyrazin-2-yl)-3′-fluoro-N-[1-(hydroxymethyl)-2-methylpropyl]biphenyl-2-sulfonamide]
3 | 29 | Nc1cnc(-c2ccc(-c3ccccc3S(=O)(=O)N[C@H]3CC[C@H](O)CC3)cc2F)cn1 [Example 110, 4′-(5-Aminopyrazin-2-yl)-3′-fluoro-N-(4-hydroxycyclohexyl)biphenyl-2-sulfonamide]
4 | 58 | Nc1cnc(-c2ccc(-c3ccccc3S(=O)(=O)N3CC[C@@H](CO)C3)cc2F)cn1 [Example 111, (R)-(1-((4′-(5-Aminopyrazin-2-yl)-3′-fluoro-[1,1′-biphenyl]-2-yl)sulfonyl)pyrrolidin-3-yl)methanol]
7 | 154 | Nc1cnc(-c2ccc(-c3ccccc3S(=O)(=O)N3CC[C@H](CO)C3)cc2F)cn1 [Example 112, (S)-(1-{[4′-(5-Aminopyrazin-2-yl)-3′-fluorobiphenyl-2-yl]sulfonyl}pyrrolidin-3-yl)methanol]
10 | 145 | Nc1cnc(-c2ccc(-c3ccccc3S(=O)(=O)N[C@@H]3CCCNC3=O)cc2F)cn1 [Example 113, (R)-4′-(5-Aminopyrazin-2-yl)-3′-fluoro-N-(2-oxopiperidin-3-yl)biphenyl-2-sulfonamide]
12 | 221 | CN([C@@H]1CCCNC1)S(=O)(=O)c1ccccc1-c1ccc(-c2cnc(N)cn2)c(F)c1 [Example 114, (R)-4′-(5-Aminopyrazin-2-yl)-3′-fluoro-N-methyl-N-piperidin-3-ylbiphenyl-2-sulfonamide]
4 | 108 | CN([C@H]1CCCNC1)S(=O)(=O)c1ccccc1-c1ccc(-c2cnc(N)cn2)c(F)c1 [Example 115, (S)-4′-(5-Aminopyrazin-2-yl)-3′-fluoro-N-methyl-N-piperidin-3-ylbiphenyl-2-sulfonamide]
1 | 12 | Nc1cnc(-c2ccc(-c3ccccc3S(=O)(=O)N[C@H](CO)Cc3ccccc3)cc2F)cn1 [Example 116, (S)-4′-(5-Aminopyrazin-2-yl)-3′-fluoro-N-(1-hydroxy-3-phenylpropan-2-yl)-[1,1′-biphenyl]-2-sulfonamide]
